Measurements published in the supplement of paper PMC13380429.

Experiments:
Details in all cases: 72 h
[1] = tested on: Vero E6; assay: drug sensitivity score (DSS) for viability; higher = more toxic; extreme values may be limits of the assay
[2] = tested on: Calu-3; assay: as above
[3] = tested on: U2OS; assay: as above
[4] = tested on: Caco-2; assay: as above
[5] = tested on: HepG2; assay: as above
[6] = tested on: Vero E6; assay: cell viability relative to DMSO; higher = less toxic
[7] = tested on: Calu-3; assay: as above
[8] = tested on: U2OS; assay: as above
[9] = tested on: Caco-2; assay: as above
[10] = tested on: HepG2; assay: as above
[11] = tested on: Vero E6; assay: relative viability EC50 (midpoint between 100% and the lowest measured viability); higher = less toxic
[12] = tested on: Calu-3; assay: as above
[13] = tested on: U2OS; assay: as above
[14] = tested on: Caco-2; assay: as above
[15] = tested on: HepG2; assay: as above

Compound	drug sensitivity score [1]	drug sensitivity score [2]	drug sensitivity score [3]	drug sensitivity score [4]	drug sensitivity score [5]	cell viability ([6]; 1 nM)	cell viability ([6]; 10 nM)	cell viability ([6]; 100 nM)	cell viability ([6]; 1000 nM)	cell viability ([6]; 10000 nM)	cell viability ([7]; 1 nM)	cell viability ([7]; 10 nM)	cell viability ([7]; 100 nM)	cell viability ([7]; 1000 nM)	cell viability ([7]; 10000 nM)	cell viability ([8]; 1 nM)	cell viability ([8]; 10 nM)	cell viability ([8]; 100 nM)	cell viability ([8]; 1000 nM)	cell viability ([8]; 10000 nM)	cell viability ([9]; 1 nM)	cell viability ([9]; 10 nM)	cell viability ([9]; 100 nM)	cell viability ([9]; 1000 nM)	cell viability ([9]; 10000 nM)	cell viability ([10]; 1 nM)	cell viability ([10]; 10 nM)	cell viability ([10]; 100 nM)	cell viability ([10]; 1000 nM)	cell viability ([10]; 10000 nM)	relative viability EC50 [11]	relative viability EC50 [12]	relative viability EC50 [13]	relative viability EC50 [14]	relative viability EC50 [15]
CN/C(=N\c1ccc(C2=NNC(=O)CC2C)cc1)NC#N (stereo not given) [siguazodan]	0	0	0	0	0	103%	104%	104%	98.9%	105%	102%	100%	98.9%	102%	98.6%	103%	103%	97.6%	105%	99.7%	105%	97.2%	97.2%	96.6%	90.6%	114%	91.1%	104%	107%	105%	> 10 µM	> 10 µM	> 10 µM	> 10 µM	> 10 µM
O=NO [sodium-nitrite]	0	0	0	0	0	106%	113%	95.2%	103%	99.2%	94.3%	100%	102%	94.8%	91.8%	95.4%	97.1%	100%	94.2%	97.4%	87.7%	93.5%	94%	92.3%	97.3%	105%	102%	97.4%	98%	101%	> 10 µM	> 10 µM	> 10 µM	> 10 µM	> 10 µM
C[C@@H]1CN(c2c(F)c(N)c3c(=O)c(C(=O)O)cn(C4CC4)c3c2F)C[C@H](C)N1 [sparfloxacin]	0	0	0	0	0	98.6%	103%	103%	98.6%	96%	97.6%	93%	106%	110%	97.5%	101%	102%	95.9%	101%	99%	96.3%	101%	95.1%	93.4%	98%	110%	98.6%	111%	94.7%	92.5%	> 10 µM	> 10 µM	> 10 µM	> 10 µM	> 10 µM
CC(=O)S[C@@H]1CC2=CC(=O)CC[C@]2(C)[C@H]2CC[C@@]3(C)[C@@H](CC[C@@]34CCC(=O)O4)[C@H]12 [spironolactone]	0	0	0	0	0	101%	97.2%	97.1%	88.7%	102%	90.7%	95.4%	99.1%	94.5%	102%	92.9%	98.6%	97.4%	101%	102%	95.1%	96.7%	100%	99.6%	102%	104%	99.7%	110%	107%	107%	> 10 µM	> 10 µM	> 10 µM	> 10 µM	> 10 µM
C[N+](C)(C)CCOC(=O)CCC(=O)OCC[N+](C)(C)C [succinylcholine-chloride]	0	0	0	0	0	108%	95.8%	102%	89.7%	102%	101%	103%	101%	94.8%	106%	98.7%	103%	101%	101%	102%	103%	97.3%	99.9%	97.2%	104%	106%	97.2%	106%	93.3%	102%	> 10 µM	> 10 µM	> 10 µM	> 10 µM	> 10 µM
Cc1ccccc1/N=N/c1ccc(/N=N/c2c(O)ccc3ccccc23)c(C)c1 [sudan-IV]	0	0	0	0	2.2	104%	100%	104%	110%	87.4%	98.2%	107%	96.6%	107%	95.2%	97.8%	102%	93.3%	95.3%	90.5%	96.3%	119%	113%	120%	94.5%	96.3%	111%	104%	81.2%	92.7%	> 10 µM	> 10 µM	> 10 µM	> 10 µM	> 10 µM
